Converted amounts (≈) assume the structure as drawn.
Assays:
HepG2 = assay: cells; conditions: Homo sapiens, HepG2, 72 h
K562 = assay: cells; conditions: Homo sapiens, K562, 72 h
physchem [1] = assay: physchem
in vitro [2] = conditions: CD1, mouse, plasma
in vitro [3] = conditions: Sprague-Dawley, rat, plasma
in vitro [4] = conditions: human, plasma
Staphylococcus aureus [5] = assay: microbe, parasite or virus in culture; conditions: ATCC 49951
Staphylococcus aureus [6] = assay: microbe, parasite or virus in culture; conditions: ATCC 49951; remark: listed apart in the source
Staphylococcus aureus [7] = assay: microbe, parasite or virus in culture; conditions: ATCC 49951; remark: listed apart in the source
Enterococcus faecalis = assay: microbe, parasite or virus in culture; conditions: ATCC 29212
Streptococcus pneumoniae = assay: microbe, parasite or virus in culture; conditions: ATCC 49619
in vivo [8] = conditions: rat, 5 mg/kg
in vivo [9] = conditions: rat, 5 mg/kg; remark: listed apart in the source
in vivo [10] = conditions: rat, iv
in vivo [11] = conditions: rat, po, 5 mg/kg
in vivo [12] = conditions: rat, po, 5 mg/kg; remark: listed apart in the source
in vivo [13] = conditions: rat, po, 5 mg/kg; remark: listed apart in the source
in vivo [14] = conditions: rat, po, 5 mg/kg; remark: listed apart in the source
physchem [15] = conditions: octanol/water, pH 7.4
physchem [16] = conditions: buffer, pH 7
in vitro [17] = conditions: human, Caco-2
in vitro [18] = conditions: human, Caco-2; remark: listed apart in the source
hERG (KCNH2) = hERG (KCNH2) (Homo sapiens, UniProt Q12809); assay: in vitro; conditions: CHO-K1 cells expressing human ERG
in vivo [19] = conditions: rat, iv, 1 mg/kg
in vivo [20] = conditions: rat, po, 3 mg/kg
in vivo [21] = conditions: rat, po, 3 mg/kg; remark: listed apart in the source

hERG (KCNH2), sequence (Q12809 whole entry): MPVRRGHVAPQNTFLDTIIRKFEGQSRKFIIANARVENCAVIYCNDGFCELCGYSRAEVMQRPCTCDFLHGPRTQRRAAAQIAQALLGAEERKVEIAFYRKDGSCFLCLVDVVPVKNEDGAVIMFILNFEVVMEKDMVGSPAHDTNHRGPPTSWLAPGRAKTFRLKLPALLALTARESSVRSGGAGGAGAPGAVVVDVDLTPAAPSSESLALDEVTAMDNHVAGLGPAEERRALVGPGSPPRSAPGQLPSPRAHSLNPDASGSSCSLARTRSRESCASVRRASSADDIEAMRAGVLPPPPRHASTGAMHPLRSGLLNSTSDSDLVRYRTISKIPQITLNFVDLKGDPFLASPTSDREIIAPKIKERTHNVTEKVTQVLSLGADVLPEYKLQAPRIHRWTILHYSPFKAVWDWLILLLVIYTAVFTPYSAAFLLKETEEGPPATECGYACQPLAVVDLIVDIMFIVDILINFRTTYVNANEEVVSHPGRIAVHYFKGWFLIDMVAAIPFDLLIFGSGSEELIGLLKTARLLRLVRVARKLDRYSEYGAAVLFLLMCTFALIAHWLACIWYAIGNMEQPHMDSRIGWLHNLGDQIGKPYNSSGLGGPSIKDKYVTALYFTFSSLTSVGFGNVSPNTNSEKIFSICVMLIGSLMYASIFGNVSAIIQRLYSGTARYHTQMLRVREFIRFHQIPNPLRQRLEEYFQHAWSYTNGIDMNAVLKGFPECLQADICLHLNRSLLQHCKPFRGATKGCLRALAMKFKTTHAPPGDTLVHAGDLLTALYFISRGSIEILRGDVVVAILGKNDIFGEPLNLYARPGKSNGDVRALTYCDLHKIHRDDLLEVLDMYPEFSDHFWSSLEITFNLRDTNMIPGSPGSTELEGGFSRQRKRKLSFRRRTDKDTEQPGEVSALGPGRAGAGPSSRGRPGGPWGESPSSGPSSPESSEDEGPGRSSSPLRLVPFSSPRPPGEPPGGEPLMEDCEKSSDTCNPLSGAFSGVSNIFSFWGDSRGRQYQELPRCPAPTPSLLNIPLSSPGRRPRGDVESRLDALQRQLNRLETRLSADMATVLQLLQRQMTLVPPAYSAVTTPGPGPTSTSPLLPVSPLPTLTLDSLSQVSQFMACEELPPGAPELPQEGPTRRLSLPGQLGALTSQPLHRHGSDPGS

For `Cc1c(N2CC[C@@H]([C@H](C)N)C2)c(F)cc2cc(C(=O)O)c(=O)n(C3CC3)c12`, the EC50 (HepG2) was over 100 µM, the EC50 (K562) was over 100 µM and the pKa (physchem [1]) was 5.2. It also gave a fraction unbound at 4 h, 10 µM (in vitro [2]) of 0.66, a fraction unbound at 4 h, 10 µM (in vitro [3]) of 0.54 and a fraction unbound at 4 h, 10 µM (in vitro [4]) of 0.54. It also gave an MIC (Staphylococcus aureus [5]) of 0.125 µg/mL (≈ 0.335 µM), an MIC (Staphylococcus aureus [6]) of 2 µg/mL (≈ 5.36 µM) and an MIC (Staphylococcus aureus [7]) of 2 µg/mL (≈ 5.36 µM). For the same compound, the MIC (Enterococcus faecalis) was 0.25 µg/mL (≈ 0.669 µM) and the MIC (Streptococcus pneumoniae) was 0.015 µg/mL (≈ 0.0402 µM).
For `Cc1c(N2CCC(C3(N)CC3)C2)c(F)cc2c(CC(=O)N(C)C)cc(=O)n(C3CC3)c12` (stereo not drawn), the clearance at 24 h (in vivo [8]) was 49.3 mL/min/kg, the Vd at 24 h (in vivo [9]) was 3.3 L/kg and the half-life at 24 h (in vivo [10]) was 1.61 h. The AUC(0-inf) at 24 h (in vivo [11]) was 0.26 µM·h, the Cmax at 24 h (in vivo [12]) was 78 nM and the Tmax at 24 h (in vivo [13]) was 1.17 h. For the same compound, the bioavailability at 24 h (in vivo [14]) was 32.5%, the logD (physchem [15]) was 0.27 and the pKa (physchem [1]) was 8.5. The fraction unbound at 4 h, 10 µM (in vitro [2]) was 0.58, the fraction unbound at 4 h, 10 µM (in vitro [3]) was 0.33 and the fraction unbound at 4 h, 10 µM (in vitro [4]) was 0.57. For the same compound, the MIC (Staphylococcus aureus [5]) was 2 µg/mL (≈ 4.69 µM) and the MIC (Staphylococcus aureus [6]) was 1 µg/mL (≈ 2.34 µM).
Work on `C[C@H](N)[C@@H]1CCN(c2c(F)cc3cc(C(=O)O)c(=O)n4c3c2OC[C@@H]4C)C1` yielded an EC50 (HepG2) of over 100 µM, an EC50 (K562) of over 100 µM and a clearance at 24 h (in vivo [8]) of 18.5 mL/min/kg. The Vd at 24 h (in vivo [9]) was 1.75 L/kg, the half-life at 24 h (in vivo [10]) was 3.02 h and the AUC(0-inf) at 24 h (in vivo [11]) was 1.6 µM·h. For the same compound, the Cmax at 24 h (in vivo [12]) was 540 nM, the Tmax at 24 h (in vivo [13]) was 0.83 h and the bioavailability at 24 h (in vivo [14]) was 66%. For the same compound, the logD (physchem [15]) was -1.1, the pKa (physchem [1]) was 5 and the fraction unbound at 4 h, 10 µM (in vitro [2]) was 0.94. It also gave a fraction unbound at 4 h, 10 µM (in vitro [3]) of 0.72, a fraction unbound at 4 h, 10 µM (in vitro [4]) of 0.8 and a solubility at 24 h (physchem [16]) of 675 µg/mL (≈ 1800 µM). For the same compound, the Papp A→B at 2 h, 10 µM (in vitro [17]) was 2.7 ×10⁻⁶ cm/s, the efflux ratio (in vitro [18]) was 1.7 and the inhibition at 300 µM (hERG (KCNH2)) was 8.3%. For the same compound, the MIC (Staphylococcus aureus [5]) was 0.125 µg/mL (≈ 0.333 µM), the MIC (Staphylococcus aureus [6]) was 2 µg/mL (≈ 5.33 µM) and the MIC (Staphylococcus aureus [7]) was 1 µg/mL (≈ 2.66 µM). The MIC (Enterococcus faecalis) was 0.25 µg/mL (≈ 0.666 µM) and the MIC (Streptococcus pneumoniae) was at most 0.03 µg/mL.
`C[C@H]1COc2c(N3CC4CC(F)(F)C[C@@H](N)[C@H]4C3)c(F)cc3cc(C(=O)O)c(=O)n1c23` (single isomer, unassigned) showed a half-life at 24 h (in vivo [19]) of 3.46 h, a Cmax at 24 h (in vivo [20]) of 1700 nM and a Tmax at 24 h (in vivo [21]) of 2 h. It also gave a logD (physchem [15]) of -0.26, a pKa (physchem [1]) of 5.1 and a fraction unbound at 4 h, 10 µM (in vitro [2]) of 0.41. For the same compound, the fraction unbound at 4 h, 10 µM (in vitro [3]) was 0.42, the fraction unbound at 4 h, 10 µM (in vitro [4]) was 0.18 and the MIC (Staphylococcus aureus [5]) was at most 0.03 µg/mL. The MIC (Staphylococcus aureus [6]) was 0.06 µg/mL (≈ 0.137 µM).

From ChEMBL document CHEMBL4808184, “Discovery and Optimization of DNA Gyrase and Topoisomerase IV Inhibitors with Potent Activity against Fluoroquinolone-Resistant Gram-Positive Bacteria” (J Med Chem, 2021)
